{"source": "patent US12171766B2", "about": "“Methods of treating patients suffering from brain injury and methods of increasing the value of the extended Glasgow Outcome Scale of patients suffering from brain injury” (VERINOS OPERATIONS GMBH, priority 2021, dated 2024)", "test_system": "adult intensive care patients with acute moderate and severe TBI", "test": "NOSTRA phase III trial: Extended Glasgow Outcome Scale (eGOS) at 3 and 6 months, Ronopterin 17 mg/kg infused over 48 hours vs placebo, incl. post hoc subgroup analyses", "type": "in vivo, human", "conditions": "for Good Recovery (eGOS ≥ 7) at 6 months, Odds ratio, 95% CI / Improvement in eGOS from 3 to 6 months, at least + 1 eGOS level, Odds ratio, 95% CI / Good Recovery (eGOS ≥ 7) at 3 months, Odds ratio, 95% CI: vs placebo", "protocol": "A phase III trial of Ronopterin infusion to adult TBI patients (18-60 years) with acute moderate and severe TBI was performed. Based on the results of the earlier phase II study, the NOSTRA (NO Synthase in TRAumatic Brain Injury) phase III trial was designed to detect clinically relevant differences in clinical outcome (Extended Glasgow Outcome Score at 6 months after injury) as primary endpoint.\nNOSTRA III was a multicentre, prospective, two parallel groups, blinded, placebo-controlled, randomised phase III trial of Ronopterin infusion for 48 hours in adult intensive care patients with acute moderate and severe TBI. […] The detailed study protocol is described by Tegtmeier et al. Efficacy of Ronopterin (VAS203) in Patients with Moderate and Severe Traumatic Brain Injury (NOSTRA phase III trial): study protocol of a confirmatory, placebo-controlled, randomised, double blind, multi-centre study. Trials. 2020. A total of 224 evaluable patients with moderate and severe TBI were enrolled in 32 centres in Austria, France, Germany, Spain, and United Kingdom. The trial started on 24 Aug. 2016 with last-patient last-visit on 17 Jun. 2020.\nPatients between 18 and 60 years of age with Glasgow Coma Score≥3 requiring intracranial pressure (ICP) monitoring were enrolled. Other inclusion criteria were TBI within the last 18 hours but at least 6 hours after the injury, which were expected to survive more than 24 hours after admission.\nRonopterin and placebo (0.9% saline) were infused continuously via central venous catheter at a constant rate. A total dose of 17 mg/kg body weight of Ronopterin was infused for 48 hours (daily dose 8.5 mg/kg body weight).\nThe primary outcome was the difference between eGOS in Ronopterin and placebo treated patients at 6 months after trauma. The eGOS was determined by a face to face meeting by trained assessors.\nThe null-hypothesis of no shift across the 8 ordered categories of eGOS for the two treatment groups was tested after six months based on a proportional odds model stratified by age (18-39 years and 40-60 years). The treatment effect was estimated using ordinal Logistic regression model as the (proportional) odds ratio of Ronopterin versus Placebo. Treatment and age (18-39 years and 40-60 years) were included in the model. The proportional odds assumption was tested using a Chi-Square Score Test.\nAs secondary efficacy endpoint the eGOS at 3 months was analysed using the same statistics.\nThe main objective of the post hoc analyses was to estimate the effect size of VAS203 compared with placebo for the primary endpoint eGOS-I in the subgroups time to infusion ≤12 hours and >12 hours. Supportive analyses were conducted by age group (<40 years, ≥40 years) because age group was used as a stratification factor in the study. Comparability between treatment groups regarding demographics as well as severity and location of disease was investigated using similar methods as in the main CSR.\nThe proportions of patients per eGOS-I level at 3 months and at 6 months were calculated. For the change in eGOS-I over time, the proportion of patients with changes from 3 to 6 months were calculated by eGOS-I level, and in addition categorised as decreased (i.e. any decrease in eGOS-I level from 3 to 6 months), unchanged (i.e. no change in eGOS-I level from 3 to 6 months), and increased (i.e. any increase in eGOS-I level from 3 to 6 months).\nOrdinal logistic regression was used for the analysis of eGOS-I at 3 months and at 6 months, including treatment group and age group (<40 years, ≥40 years) as factors in the model. Estimated odds ratios for the comparison of the VAS203 and placebo groups of >1 mean that eGOS-I was higher in the VAS203 group than in the placebo group across the 8 levels, whereas odds ratios of <1 mean that eGOS-I was lower in the VAS203 group than in the placebo group. Odds ratios together with their 95% CIs were used to estimate and assess the size of the treatment effect of VAS203 compared to placebo. […]", "data": [{"smiles": "CC(O)C(O)C1CNc2nc(N)nc(N)c2N1", "note": "[Ronopterin, 4-Amino-(6R,S)-5,6,7,8-tetrahydro-L-biopterin]", "values": [{"measurement": "Good Recovery (eGOS ≥ 7) at 6 months, Odds ratio, 95% CI", "setting": "All females 40-60 years (so in the source), >12 hours", "result": "5.5 (0.6-53);"}, {"measurement": "Good Recovery (eGOS ≥ 7) at 6 months, Odds ratio, 95% CI", "setting": "All females, all times to infusion", "result": "2.8 (0.6-12.6); n = 44"}, {"measurement": "Improvement in eGOS from 3 to 6 months, at least + 1 eGOS level, Odds ratio, 95% CI", "setting": "All males 18-60 years and young females 18-39 years, ≤12 hours", "result": "3.4 (1.2-10.2);"}, {"measurement": "Improvement in eGOS from 3 to 6 months, at least + 1 eGOS level, Odds ratio, 95% CI", "setting": "All males 18-60 years, ≤12 hours", "result": "3.7 (1.1-12);"}, {"measurement": "Good Recovery (eGOS ≥ 7) at 6 months, Odds ratio, 95% CI", "setting": "All males plus females 18-39 years, ≤12 hours", "result": "2.4 (0.8-7.6);"}, {"measurement": "Good Recovery (eGOS ≥ 7) at 3 months, Odds ratio, 95% CI", "setting": "Female, 18-39 years, >12 hours", "result": "6.5 (0.27-161);"}, {"measurement": "Good Recovery (eGOS ≥ 7) at 6 months, Odds ratio, 95% CI", "setting": "Female, 18-39 years, >12 hours", "result": "2.3 (0.2-33);"}, {"measurement": "Improvement in eGOS from 3 to 6 months, at least + 1 eGOS level, Odds ratio, 95% CI", "setting": "Female, 18-39 years, >12 hours", "result": "0.3 (0.04-2.8);"}, {"measurement": "Good Recovery (eGOS ≥ 7) at 3 months, Odds ratio, 95% CI", "setting": "Female, 18-39 years, ≤12 hours", "result": "1.5 (0.06-41);"}, {"measurement": "Good Recovery (eGOS ≥ 7) at 6 months, Odds ratio, 95% CI", "setting": "Female, 18-39 years, ≤12 hours", "result": "6.0 (0.2-163);"}, {"measurement": "Improvement in eGOS from 3 to 6 months, at least + 1 eGOS level, Odds ratio, 95% CI", "setting": "Female, 18-39 years, ≤12 hours", "result": "1.5 (0.06-41);"}, {"measurement": "Good Recovery (eGOS ≥ 7) at 3 months, Odds ratio, 95% CI", "setting": "Female, 40-60 years, >12 hours", "result": "4.2 (0.2-102);"}, {"measurement": "Good Recovery (eGOS ≥ 7) at 6 months, Odds ratio, 95% CI", "setting": "Female, 40-60 years, >12 hours", "result": "6.2 (0.3-147);"}, {"measurement": "Improvement in eGOS from 3 to 6 months, at least + 1 eGOS level, Odds ratio, 95% CI", "setting": "Female, 40-60 years, >12 hours", "result": "1.3 (0.1-18);"}, {"measurement": "Good Recovery (eGOS ≥ 7) at 3 months, Odds ratio, 95% CI", "setting": "Female, 40-60 years, ≤12 hours", "result": "1.3 (0.02-83);"}, {"measurement": "Good Recovery (eGOS ≥ 7) at 6 months, Odds ratio, 95% CI", "setting": "Female, 40-60 years, ≤12 hours", "result": "0.3 (0.01-11.3);"}, {"measurement": "Improvement in eGOS from 3 to 6 months, at least + 1 eGOS level, Odds ratio, 95% CI", "setting": "Female, 40-60 years, ≤12 hours", "result": "0.3 (0.01-11.3);"}, {"measurement": "Good Recovery (eGOS ≥ 7) at 3 months, Odds ratio, 95% CI", "setting": "Females 18-39 years, all times to infusion", "result": "4.2 (0.4-47); n = 23"}, {"measurement": "Good Recovery (eGOS ≥ 7) at 3 months, Odds ratio, 95% CI", "setting": "Females 40-60 years, all times to infusion", "result": "5.7 (0.3-126); n = 21"}, {"measurement": "Good Recovery (eGOS ≥ 7) at 3 months, Odds ratio, 95% CI", "setting": "Male, 18-39 years, >12 hours", "result": "0.2 (0.03-0.85);"}, {"measurement": "Improvement in eGOS from 3 to 6 months, at least + 1 eGOS level, Odds ratio, 95% CI", "setting": "Male, 18-39 years, >12 hours", "result": "0.7 (0.2-1.9);"}, {"measurement": "Good Recovery (eGOS ≥ 7) at 6 months, Odds ratio, 95% CI", "setting": "Male, 18-39 years, time to infusion >12 hours", "result": "0.6 (0.2-1.6);"}, {"measurement": "Good Recovery (eGOS ≥ 7) at 6 months, Odds ratio, 95% CI", "setting": "Male, 18-39 years, time to infusion ≤12 hours", "result": "1.4 (0.3-5.9);"}, {"measurement": "Good Recovery (eGOS ≥ 7) at 3 months, Odds ratio, 95% CI", "setting": "Male, 18-39 years, ≤12 hours", "result": "0.4 (0.08-2.2);"}, {"measurement": "Improvement in eGOS from 3 to 6 months, at least + 1 eGOS level, Odds ratio, 95% CI", "setting": "Male, 18-39 years, ≤12 hours", "result": "5.4 (1.1-26);"}, {"measurement": "Good Recovery (eGOS ≥ 7) at 3 months, Odds ratio, 95% CI", "setting": "Male, 40-60 years, >12 hours", "result": "0.2 (0.02-1.4);"}, {"measurement": "Good Recovery (eGOS ≥ 7) at 6 months, Odds ratio, 95% CI", "setting": "Male, 40-60 years, >12 hours", "result": "0.6 (0.2-2.2);"}, {"measurement": "Improvement in eGOS from 3 to 6 months, at least + 1 eGOS level, Odds ratio, 95% CI", "setting": "Male, 40-60 years, >12 hours", "result": "0.98 (0.3-2.8);"}, {"measurement": "Good Recovery (eGOS ≥ 7) at 3 months, Odds ratio, 95% CI", "setting": "Male, 40-60 years, ≤12 hours", "result": "0.7 (0.01-38);"}, {"measurement": "Good Recovery (eGOS ≥ 7) at 6 months, Odds ratio, 95% CI", "setting": "Male, 40-60 years, ≤12 hours", "result": "9.0 (0.4-194);"}, {"measurement": "Improvement in eGOS from 3 to 6 months, at least + 1 eGOS level, Odds ratio, 95% CI", "setting": "Male, 40-60 years, ≤12 hours", "result": "2.3 (0.4-14.6);"}, {"measurement": "increase in eGOS levels from 3 to 6 months", "setting": "age 18-39 years, >12 hours (FIG. 7E)", "result": "up to 3 levels"}, {"measurement": "number of patients with increase in eGOS by at least 2 levels from 3 to 6 months", "setting": "age 18-39 years, >12 hours (FIG. 7G)", "result": 10}, {"measurement": "less patients with decrease in eGOS over time vs placebo: significance", "setting": "age 18-39 years, all times to infusion", "result": "not significant"}, {"measurement": "increase in eGOS levels from 3 to 6 months", "setting": "age 18-39 years, all times to infusion (FIG. 6A)", "result": "up to 3 levels"}, {"measurement": "number of patients with increase in eGOS by at least 2 levels from 3 to 6 months", "setting": "age 18-39 years, all times to infusion (FIG. 6C)", "result": 14}, {"measurement": "more patients with higher increase in eGOS over time vs placebo: significance", "setting": "age 18-39 years, all times to infusion (FIG. 6D)", "result": "not significant"}, {"measurement": "increase in eGOS levels from 3 to 6 months", "setting": "age 18-39 years, ≤12 hours (FIG. 7A)", "result": "up to 3 levels"}, {"measurement": "increase in proportion of patients with an eGOS increase by at least 1 level compared to Placebo: significance", "setting": "age 18-39 years, ≤12 hours (FIG. 7B, 7D)", "result": "significant"}, {"measurement": "number of patients with increase in eGOS by at least 2 levels from 3 to 6 months", "setting": "age 18-39 years, ≤12 hours (FIG. 7C)", "result": 4}, {"measurement": "increase in eGOS levels from 3 to 6 months", "setting": "age 40-60 years, >12 hours (FIG. 9E)", "result": "up to 4 levels"}, {"measurement": "number of patients with increase in eGOS by at least 2 levels from 3 to 6 months", "setting": "age 40-60 years, >12 hours (FIG. 9G)", "result": 5}, {"measurement": "less patients with a decrease in eGOS over time vs placebo: significance", "setting": "age 40-60 years, all times to infusion", "result": "not (statistically) significant"}, {"measurement": "increase in eGOS levels from 3 to 6 months", "setting": "age 40-60 years, all times to infusion (FIG. 8A)", "result": "up to 4 levels"}]}]}
